Assay results as given in patent US7279336B2, “Methods and compositions for enhanced plant cell transformation” (priority 2002, dated 2007).

Key:
maize immature embryos = assay: Maize transformation experiments with control or histone H2A-1 T-DNA binary vector, with or without anti-oxidant; assay type: cell-based
From the text: 2. Kan Wang at the Plant Transformation Facility, Iowa State University tested for the present invention in two different Agrobacterium strains. One contains a T-DNA binary vector with a herbicide resistance gene in the T-DNA (this is the control construction)1. The other strain contains a similar T-DAN binary vector, but in addition to the herbicide resistance gene the T-DNA contains the Arabidopsis histone H2A-1 cDNA under the control of maize adh1 promoter and intron. These strains were used in four rounds of maize transformation experiments. […] Several thousand transformations (using the control vector without the histone gene) produced virtually no transformants. In these experiments, there were no transformants (using the control strain) without L-cysteine.

Japonica rice explants = conditions: 80 mg/L Cys; cited from earlier work
[1] = test system: immature zygotic embryos of the maize hybrid line Hi II; assay: Agrobacterium tumefaciens (EHA101, standard binary vector pTF102) transformation of maize Hi II immature zygotic embryos
Description: A. tumefaciens strain EHA101 (Hood et al., 1986) containing the standard binary vector pTF102 (12.1 kb) was used in all experiments. […] This vector system, pTF 102 in EHA 101, was maintained on yeast extract peptone (YEP) medium (An et al., 1988) containing 100 mg/L spectinomycin (for pTF102) and 50 mg/L kanamycin (for EHA101). Bacteria cultures for weekly experiments were initiated from stock plates that were stored for up to 1 month at 4° C. before being refreshed from long-term, 80° C. glycerol stocks. In all experiments, bacteria cell densities were adjusted to an optical density (OD550) between 0.35 to 0.45 using a spectrophotometer immediately before embryo infection.
F2 immature zygotic embryos (1.5-2.0 mm) of the maize (Zea mays) Hi II hybrid genotype (Armstrong et al., 1991) were aseptically dissected from greenhouse-grown ears harvested 10 to 13 d post pollination. Ears were stored up to 3 d at 4° C. before dissection.
Infection, cocultivation, resting, and selection media were after Zhao et al. (1999) except that cocultivation medium was modified to contain Cys. All these media contained N6 salts and vitamins (Chu et al., 1975), 1.5 mg/L 2,4-dichlorophenoxyacetic acid, and 0.7 g L1 L-Pro in addition to the following ingredients: infection medium contained 68.4 g/L Suc and 36 g/L Glc (pH 5.2) and was supplemented with 100 μM AS (Sigma, St. Louis) before use; cocultivation medium contained 30 g/L Suc, 0.85 mg/L silver nitrate, 100 μM AS, and 3 g/L gelrite (pH 5.8); resting medium contained 30 g/L Suc, 0.5 g/L MES, 0.85 mg/L silver nitrate, 250 mg/L cefotaxime, and 8 g/L purified agar (pH 5.8). Selection medium was identical to resting medium with the addition of 1.5 or 3 mg/L bialaphos (Shinyo Sanyo, Tokyo). Infection medium was filter sterilized, whereas all other media were autoclaved. AS stock solutions (100 mM) were prepared by dissolving AS in 100% (v/v) dimethyl sulfoxide (DMSO) to make a 200 mM stock which was then diluted (1:1 [v/v]) with sterile water and stored in small aliquots at 20° C. Cys was added to cocultivation medium after autoclaving from freshly prepared, filter-sterilized stocks (100 mg/mL) and cocultivation medium was used within 2 to 5 d of preparation. Regeneration I medium contained Murashige and Skoog salts and vitamins (Murashige and Skoog, 1962), 60 g/L Suc, 100 mg/L myo-inositol, no hormones, and 3 g/L gelrite (pH 5.8) after Armstrong and Green (1985). Cefotaxime (250 mg/L) and bialaphos (3 mg/L) were added to this medium after autoclaving. Regeneration II medium differed from medium I in that it contained 30 g/L Suc and no bialaphos.

embryo response after cocultivation ([1]; L-cysteine in cocultivation medium, 400 mg/L vs 0 mg/L): decrease
SMILES: N[C@@H](CS)C(=O)O [L-cysteine]
infected immature embryos giving transformants (maize immature embryos; control vector without histone gene, with L-cysteine, no transformants without L-cysteine): 2-3%
transformation (maize immature embryos; histone gene vector and L-cysteine): 2-3%
impact on embryogenesis (Japonica rice explants): negative impact
T-DNA delivery to embryogenic-competent scutellum cells of infected embryos ([1]; 400 mg/L Cys in cocultivation medium): increased
stable transformation rates ([1]; Cys as low as 100 mg/L, compared with 400 mg/L, better embryo recovery): Comparable
transient glucuronidase expression in targeted cells ([1]; L-cysteine in cocultivation medium, 400 mg/L): improvement
